Experiments:
[1] = Text: Safety and tolerability endpoints will include monitoring and recording of AEs, clinical laboratory test results (hematology, serum chemistry, and urinalysis), vital sign measurements, 12-lead ECG results, and physical examination findings. The PA/MMA cohort will also be screened for suicidal ideation using the C-SSRS.
[2] = 60 mg, fed vs fasted
Description: All subjects will receive 2 doses of study drug in a crossover manner, separated by a washout period of 7 days or 5 half-lives up to 21 days (whichever is longer).
Study drug will then be administered along with a standardized high-calorie (approximately 800 to 1000 calories) breakfast. The meal will be ingested entirely within 30 minutes, and study drug will be administered 30 minutes after the start of the meal.

in vivo [3] = conditions: rat
[4] = system: Pcca^−/−PCCA(A138T)^tg/0 mice; assay: Survival of Pcca−/−PCCA(A138T)tg/0 mice; format: in vivo; conditions: 22.5 ppm (3 mg/kg) in chow; untreated ~51%
Text: (§1) Water was supplied ad libitum.
At postnatal day 90, the probability of survival of Pcca^−/−PCCA(A138T)^tg/0 mice was ˜51%.

[5] = system: C57BL/6J (wild-type) mice; conditions: oral gavage QD 0.1, 1, 3, 10 or 30 mg/kg for one week; four hours after last dose
Description: Tissue Total CoA Determinations: Total CoA was quantified as described earlier. Either frozen brain or liver tissue (30-40 mg) was homogenized in 1 mM potassium hydroxide (KOH) to hydrolyze all the acyl chains and then the CoA was derivatized with monobromobimane (mBBr). […] The retention time was determined by running a CoA standard before each set of samples. Total CoA was quantified using a standard curve generated with known amounts of CoA.
Control animals were administered 0.5% methylcellulose QD for one week. Four hours after the last dose, the animals were sacrificed, plasma and tissues were collected, and CoA levels were determined in tissues. […] Statistical significance was determined for total CoA using a Student's t-test calculated with GraphPad software and P-values compared to the control animals are noted on the figure panels.

[6] = system: Pcca^−/−PCCA(A138T)^tg/0 mice; assay: Acyl-CoA in liver, brain and heart of Pcca−/−PCCA(A138T)tg/0 mice; format: in vivo; conditions: 22.5 ppm (3 mg/kg) in chow for 30 days after weaning
Description: as §1
Acyl-CoA Measurements by Mass Spectrometry: Acyl-CoAs were quantified as described by Sharma et al., Nat. Commun. 2018; 9:4399. Briefly, 30-40 mg of tissue was homogenized in 2 mL methanol and 1 mL water and incubated on ice for 30 minutes. 1.5 mL of chloroform and 1.2 mL of water was added to remove the lipids. The aqueous top layer was collected and 30 pmol of [13C]acetyl-CoA (Sigma) was added and dried overnight in a speedvac.
Mass spectrometry of the acyl-CoA distribution was performed using a Finnigan TSQ Quantum (Thermo Electron) triple-quadrupole mass spectrometer. The instrument was operated in positive mode using single ion monitoring (SIM) neutral loss scanning corresponding to the loss of the phosphoadenosine diphosphate from CoA species. The ion source parameters were as follows: spray voltage, 4,000 V; capillary temperature, 250° C.; capillary offset, −35 V; sheath gas pressure, 10; auxiliary gas pressure, 5; and tube lens offset was set by infusion of the polytyrosine tuning and calibration in electrospray mode. Acquisition parameters were as follows: scan time, 0.5 s; collision energy, 30 V; peak width Q1 and Q3, 0.7 FWHM; Q2 CID gas, 0.5 mTorr; source CID, 10 V; neutral loss, 507.0 m/z; SIM mass of 810 m/z with a scan width of 8 m/z to capture the signal from cellular acetyl-CoA and the [13C]acetyl-CoA internal standard.

[7] = system: Pank1,2 neural knockout mice; assay: Survival of Pank1,2 neural knockout mice; format: in vivo; conditions: 75 ppm in chow from postnatal day 14; untreated ~50%
Text: (§2) Water was supplied ad libitum. Mice were maintained on a chow diet with purified ingredients containing 19% kcal protein, 66.5% kcal carbohydrate and 14.4% kcal fat (Envigo #TD170542) which was similar to standard rodent chow (LabDiet #5013). The mice were randomized into the treatment arms. […] However, this is an approximation, as SynCre^+Pank1^−/−Pank2^−/− mice both weigh less and eat less than wild-type mice. […] At the end of the dark cycle, individual mice were placed in an open rectangular arena (36.8 cm×43.2 cm) for 5 min during the light cycle and motor activity was evaluated using a video tracking system provided by HVS Image with associated 2100 Plus software (San Diego, CA, USA). Each animal was placed in the center of the arena under standard overhead lighting and the total distance traveled and the percentage of time in motion were recorded. The behaviors of age-matched control animals, treated with Compound (I) and untreated, were quantified and compared. […] Liver, forebrain and hindbrain were quickly excised, approximately 30-50 mg pieces were immediately flash frozen in liquid N2 and stored frozen at −80° C. until analysis. The plasma and tissue samples were used for Compound (I) and total CoA determinations.
(§3) Following analysis of movement, all animals were sacrificed at postnatal Day 45 for examination of tissue CoA levels.

in vivo [8] = conditions: female, rat
[9] = system: Pcca^−/−PCCA(A138T)^tg/0 mice; assay: Plasma and urine acyl carnitines in Pcca−/−PCCA(A138T)tg/0 mice; format: in vivo
Description: (§4) The mice were maintained at 72′±2° F., humidity 50%±10% and a 14-hour light/10-hour dark cycle with the dark cycle starting at 20:00 hrs. Water was supplied ad libitum. The mice were randomized into the treatment arms to achieve a normal weight distribution. […] Blood was collected in ethylenediaminetetraacetic acid (EDTA) at P50 by cardiac puncture from isoflurane-anesthetized animals, plasma was prepared and stored frozen at −80° C. until analysis. Liver, brain, and heart were quickly excised, immediately flash frozen in liquid nitrogen and stored frozen at −80° C. until analysis.
(§5) Metabolites from Urine and Plasma: Water was added to thawed 24-hr urine samples to a final volume of 1 mL for each mouse. To 100 μL of urine or 20 μL of plasma, warfarin standard was added at a final concentration of 0.2 μM and the sample was incubated at −80° C. for 1 hour. The sample was centrifuged at 6000×g for 10 minutes to remove precipitants and the supernatant was analyzed by LC/MS/MS. Analysis was performed using a Shimadzu Prominence UFLC attached to a QTrap 4500 equipped with a Turbo V ion source (Sciex). […] The system was controlled by the Analyst® software (Sciex) and analyzed with MultiQuant™ 3.0.2 software (Sciex). The relative amount of metabolite was normalized to the amount of warfarin then the ratio to creatinine was calculated.

in vivo [10] = conditions: monkey
[11] = rat, in vivo
[12] = 22.5 ppm (3 mg/kg) in chow for 30 days after weaning
Description: The mice were maintained at 72′±2° F., humidity 50%±10% and a 14-hour light/10-hour dark cycle with the dark cycle starting at 20:00 hrs. Water was supplied ad libitum. The mice were randomized into the treatment arms to achieve a normal weight distribution. […] However, this is merely an approximation, as Pcca^−/−PCCA(A138T)^tg/0 mice weigh less but also eat less than wild-type mice. […] Blood was collected in ethylenediaminetetraacetic acid (EDTA) at P50 by cardiac puncture from isoflurane-anesthetized animals, plasma was prepared and stored frozen at −80° C. until analysis. Liver, brain, and heart were quickly excised, immediately flash frozen in liquid nitrogen and stored frozen at −80° C. until analysis.
The samples were incubated on ice for 30 min. Samples were spun at 3500×g for 10 min to pellet debris, and the supernatant was transferred to a glass vial. […] 30 mg of tissue was homogenized in 2 mL of 80% methanol containing 0.1 μM warfarin and incubated at −80° C. for 4 hr. Samples were spun at 3500×g for 10 min to pellet debris, supernatant was transferred to a glass tube and dried down using a Savant SPD1010 Speed-Vac (Thermo Scientific) overnight. Samples were resuspended in 400 μL of 80% acetonitrile to a final concentration of 0.5 μM and transferred to a glass vial. […]

[13] = system: Pcca^−/−PCCA(A138T)^tg/0 mice; assay: Plasma and urine metabolites (TCA cycle intermediates) in Pcca−/−PCCA(A138T)tg/0 mice; format: in vivo; conditions: 22.5 ppm (3 mg/kg) in chow
Description: as §4, §5

[14] = system: Pank1,2 neural knockout mice; assay: Body weight of Pank1,2 neural knockout mice; format: in vivo; conditions: 75 ppm in chow from postnatal day 14
Text: as §2, §3

[15] = of all Compound (I) treated subjects

O=C(Cc1ccc(C2CC2)c(F)c1)N1CCN(c2ccc(Cl)nn2)CC1 [Compound (I), 1-(4-(6-chloropyridazin-3-yl)piperazin-1-yl)-2-(4-cyclopropyl-3-fluorophenyl)ethan-1-one]
Tolerability ([1]; 60 healthy adult subjects, Phase 1 study): generally well-tolerated
Mild treatment-related TEAE abdominal pain [1, 15]: 1.7%
Mild treatment-related TEAE headache [1, 15]: 5%
Mild treatment-related TEAE nausea [1, 15]: 1.7%
Delay of absorption by food [2]: ~2 h
Increase in plasma exposure with food [2]: ~1.3 fold
clearance (in vivo [3]; iv): 32.6 mL/min/kg
bioavailability (in vivo [3]; po): 35.2%
Probability of survival at postnatal day 90 [4]: ~94%
Brain (forebrain and hindbrain) total CoA response [5]: dose-responsive increase
C2-CoA in liver, brain and heart [6]: rescued to wild-type levels
Probability of survival at postnatal Day 45 [7]: −70%
NOAEL at 13 weeks (in vivo [8]): 8 mg/kg/day
Decreased free carnitine and C2-carnitine levels in plasma and urine ([9]; 22.5 ppm (3 mg/kg) in chow for 30 days after weaning): rescued
C3-carnitine in plasma ([9]; 22.5 ppm (3 mg/kg) in chow, plasma): decreased
clearance (in vivo [10]; iv): 19.7 mL/min/kg
bioavailability (in vivo [10]; po): 17.6%
Accumulation after multiple doses [11]: Less than 2 fold
Exposures in male rats versus female rats at the same doses [11]: lower exposures than female rats
Distribution of Compound (I) into liver, brain and heart [12]: well distributed into the liver, and to a lesser extent in brain and heart
Exposure in female mice versus males [12]: higher exposures than males
Levels of methylcitrate, methylmalonate and α-ketoglutarate in plasma [13]: reduced
Body weight gain compared with untreated mice [14]: significantly increased
